Measured values as given in patent US10640765B2 (priority 2016, dated 2020).

How the values were obtained:
[1] = test system: vaccinia virus (v7.5/tk viral DNA) in BSC-1 cells; format: cell-based
vaccinia virus = format: cell-based

## CO[C@H]1/C=C/O[C@@]2(C)Oc3c(C)c(O)c4c(O)c(c(/C=N/N5CCN(C)CC5)c(O)c4c3C2=O)NC(=O)/C(C)=C\C=C\[C@H](C)[C@H](O)[C@@H](C)[C@@H](O)[C@@H](C)[C@H](OC(C)=O)[C@@H]1C [Rifampicin, rifampicin]
[1]
  efficiency (number of recombinant clones): 113,148 clones/100 mm^2 plate
Vaccinia virus
  overall efficiency of clone production with rifampicin versus without rifampicin: approximately 10 fold
